Our source for the IC50 and inhibition values is EP2951180B1, “2,6,7,8 SUBSTITUTED PURINES AS HDM2 INHIBITORS” (Merck Sharp & Dohme Corp., priority 2013, dated 2014).

In the assay the target is T1, HDM2 (Homo sapiens, UniProt Q00987).
T1 construct: Thioredoxin (N); made in house; host or cells: E. coli strain BL21(DE3)Rosetta
In words: HDM2 FRET assay (inhibition of binding of FITC labeled p53-pocket peptide to HDM2). The conditions noted are these: for IC50: read-out: FRET IC50. The text has this: Methods: An HDM2 FRET assay was developed to assess the compounds' inhibitory activity towards binding of p53 protein. […] Protein was purified using Ni-affinity chromatography, followed by size exclusion chromatography using Superdex 75 26/60 column. […] The HDM2 assay buffer contained 1x Phosphate Buffered Saline (Invitrogen, Cat#14190), 0.01% BSA (Jackson ImmunoResearch, Cat# 001-000-162), 0.01% Tween-20. In the 1X assay buffer recombinant HDM2 protein, peptide and Lumi4-Tb Cryptate-conjugate mouse anti-6xHis antibody (cisbio, Cat#Tb61HISTLB) were added and transferred to ProxiPlate PLUS (PerkinElmer, Cat#6008269), containing compounds so that final DMSO concentration is 0.1% . Final concentrations of reagents in the assay wells are 0.5 nM HDM2, 0.25nM anti HIS (Tb label) antibody and 3nM peptide. […] Ratio of em520/em495 was used to calculate %inhibition and to obtain IC50 with 4-parameter logistic equation.
IC50 DETERMINATIONS: Dose-response curves were plotted from the inhibition data, from 10 point serial dilutions of inhibitory compounds. Concentration of compound was plotted against em520/Cem495 ratio signal. To generate IC50 values, the dose-response curves were fitted to a standard sigmoidal curve and IC50 values were derived by nonlinear regression analysis.

[1] abbreviates: 0.5 nM HDM2 (residues 17 to 125), 3nM peptide, two hour incubation at room temperature.

Read-outs that look alike come from different tables or passages of the source.

Usually IC50 stands for the concentration at which inhibition is half-maximal.

T1 sequence (Q00987 17-125): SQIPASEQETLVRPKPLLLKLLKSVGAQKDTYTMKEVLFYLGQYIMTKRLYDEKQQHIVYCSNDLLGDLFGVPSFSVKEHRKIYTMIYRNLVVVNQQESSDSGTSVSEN

For `C[C@@H]1[C@@H](C)OCCN1c1nc2nc(-c3noc(=O)[nH]3)nc(-c3cncc(Cl)c3)c2n1C[C@H]1CC[C@H](C)CC1` [Example 16.136, 3-{6-(5-chloropyridin-3-yl)-8-[(2R,3R)-2,3-dimethylmorpholin-4-yl]-7-[(trans-4-methylcyclohexyl)methyl]-7H-purin-2-yl}-1,2,4-oxadiazol-5(4H)-one], under setting [1], the IC50 was 7.19 nM.

On to `Cc1cccc(-c2nc3nc(C(=O)O)nc(NCC4CCCCC4)c3n2Cc2ccc(C(F)(F)F)cc2)c1` [Example 6.50, 6-[(cyclohexylmethyl)amino]-8-(3-methylphenyl)-7-[4-(trifluoromethyl)benzyl]-7H-purine-2-carboxylic acid], for which the IC50 (Table 6) stood at 1370 nM.

For `C[C@@H](Nc1nc(C(=O)O)nc2nc(N3CCCCC3c3ccncc3)n(Cc3ccc(C(F)(F)F)cc3)c12)C1CCC1` (stereo partly drawn) [Example 9.115, 6-{[(1R)-1-cyclobutylethyl]amino}-8-(2-pyridin-4-ylpiperidin-1-yl)-7-[4-(trifluoromethyl)benzyl]-7H-purine-2-carboxylic acid], for the setting “Table 9”, the half-maximal inhibitory concentration (IC50) came out at 16.6 nM.

For `Cc1cccc(-c2nc3nc(C(=O)O)nc(N[C@H](CCC(=O)NCCO)C4CCC4)c3n2Cc2ccc(C(F)(F)F)cc2)c1` [Example 7.7, 6-({(1R)-1-cyclobutyl-4-[(2-hydroxyethyl)amino]-4-oxobutyl}amino)-8-(3-methylphenyl)-7-[4-(trifluoromethyl)benzyl]-7H-purine-2-carboxylic acid], for the setting “Table 7”, the IC50 worked out at 832 nM.

As for `COC(c1ccccc1F)c1nc2nc(-c3n[nH]c(=O)o3)nc(-c3cncc(Cl)c3)c2n1C[C@H]1CC[C@H](C)CC1` (mixture of isomers) [Example 23.103, 5-{6-(5-chloropyridin-3-yl)-8-[(2-fluorophenyl)(methoxy)methyl]-7-[(trans-4-methylcyclohexyl)methyl]-7H-purin-2-yl}-1,3,4-oxadiazol-2(3H)-one], the IC50 (Table 23) turned out to be 1.7 nM.

Consider `CCN1CCCCC1c1nc2nc(C(=O)O)nc(N[C@H](C)C3CCC3)c2n1Cc1ccc(C(F)(F)F)cc1` (stereo partly drawn) [Example 10.25, 6-(((R)-1-Cyclobutylethyl)amino)-8-(1-ethylpiperidin-2-yl)-7-(4-(trifluoromethyl)benzyl)-7H-purine-2-carboxylic acid], for which the half-maximal inhibitory concentration (IC50) (Table 10) turned out to be 35.4 nM.

For the compound `CC(C)c1cc(-c2nc3nc(C(=O)O)nc(N[C@H](C)C4CCC4)c3n2C[C@H]2CC[C@H](C)CC2)ncc1F` [Example 15.8, 6-(((R)-1-cyclobutylethyl)amino)-8-(5-fluoro-4-isopropylpyridin-2-yl)-7-((trans-4-methylcyclohexyl)methyl)-7H-purine-2-carboxylic acid], the half-maximal inhibitory concentration (IC50) under setting [1] amounted to 1.14 nM.

With `Cc1cccc(-c2nc3nc(C(=O)O)nc(N[C@@H](C)C4CCCCC4)c3n2Cc2ccc(C(F)(F)F)cc2)c1` [Example 6.45, 6-{[(1S)-1-cyclohexylethyl]amino}-8-(3-methylphenyl)-7-[4-(trifluoromethyl)benzyl]-7H-purine-2-carboxylic acid], the IC50 (Table 6) was found to be 1610 nM.

As for `C[C@@H](Nc1nc(-c2noc(=O)[nH]2)nc2nc(C3(c4ccccc4)CCC3)n(C[C@H]3CC[C@H](C)CC3)c12)C1CCC1` [Example 20.8, 3-[6-{[(1R)-1-cyclobutylethyl]amino}-7-[(trans-4-methylcyclohexyl)methyl]-8-(1-phenylcyclobutyl)-7H-purin-2-yl]-1,2,4-oxadiazol-5(4H)-one], the 50% inhibitory concentration (IC50) (Table 20) came to 5.96 nM.

For the compound `C[C@@H](Nc1nc(-c2noc(=O)[nH]2)nc2nc(N3CCCCC3CF)n(C[C@H]3CC[C@H](C)CC3)c12)C1CCC1` (stereo partly drawn) [Example 11.40, 3-(6-{[(1R)-1-cyclobutylethyl]amino}-8-[2-(fluoromethyl)piperidin-1-yl]-7-[(trans-4-methylcyclohexyl)methyl]-7H-purin-2-yl)-1,2,4-oxadiazol-5(2H)-one], the IC50 (Table 11) is 8.52 nM.

For the compound `CNc1nc(N[C@H](C)C2CCC2)c2c(n1)nc(N1CCOC[C@H]1c1ccccc1)n2C[C@H]1CC[C@H](C)CC1` [Example 13.3, N^6-[(1R)-1-cyclobutylethyl]-N^2-methyl-7-[(trans-4-methylcyclohexyl)methyl]-8-[(3R)-3-phenylmorpholin-4-yl]-7H-purine-2,6-diamine], the inhibition at 1 µM (read-out: % inh. at 1000 nM, at 1000 nM compound) was found to be 46%.

Take `CC[C@@H]1COCCN1c1nc2nc(-c3n[nH]c(=O)o3)nc(-c3cccc(Cl)c3)c2n1C[C@H]1CC[C@H](C)CC1` [Example 16.58, 5-{6-(3-chlorophenyl)-8-[(3R)-3-ethylmorpholin-4-yl]-7-[(trans-4-methylcyclohexyl)methyl]-7H-purin-2-yl}-1,3,4-oxadiazol-2(3H)-one]: under setting [1], the IC50 is 21.4 nM.

For `Cc1csc([C@@H]2COCCN2c2nc3nc(-c4noc(=O)[nH]4)nc(-c4cccc(Cl)c4)c3n2C[C@H]2CC[C@H](C)CC2)n1` [Example 16.120, 3-{6-(3-chlorophenyl)-7-[(trans-4-methylcyclohexyl)methyl]-8-[(3S)-3-(4-methyl-1,3-thiazol-2-yl)morpholin-4-yl]-7H-purin-2-yl}-1,2,4-oxadiazol-5(4H)-one], under setting [1], the concentration for half-maximal inhibition (IC50) stood at 9.14 nM.

Consider `CC([C@H]1CC[C@H](C)CC1)n1c(N2CCOC[C@H]2C)nc2nc(-c3noc(=O)[nH]3)nc(N[C@H](C)C3CCC3)c21` (single isomer, unassigned) [Example 18.12], for which the IC50 (Table 18) worked out at 2.82 nM.

For `C[C@@H]1COCCN1c1nc2nc(CC(=O)O)nc(-c3cccc(Cl)c3)c2n1C[C@H]1CC[C@H](C)CC1` [Example 26.2, {6-(3-chlorophenyl)-7-[(trans-4-methylcyclohexyl)methyl]-8-[(3R)-3-methylmorpholin-4-yl]-7H-purin-2-yl} acetic acid], the IC50 (Table 26) was 783 nM.

Consider `C[C@H](CO)Nc1nc2nc(-c3noc(=O)[nH]3)nc(-c3cccc(Cl)c3)c2n1C[C@H]1CC[C@H](C)CC1` [Example 16.4, 3-(6-(3-chlorophenyl)-8-(((R)-1-hydroxypropan-2-yl)amino)-7-(((trans)-4-methylcyclohexyl)methyl)-7H-purin-2-yl)-1,2,4-oxadiazol-5(4H)-one], for which the IC50 under setting [1] turned out to be 29.8 nM.

As for `Cc1cccc(-c2nc3nc(C(=O)O)nc(N[C@H](C)c4cccc(Cl)c4)c3n2Cc2ccc(C(F)(F)F)cc2)c1` [Example 6.27, 6-{[(1R)-1-(3-chlorophenyl)ethyl]amino}-8-(3-methylphenyl)-7-[4-(trifluoromethyl)benzyl]-7H-purine-2-carboxylic acid], the IC50 (Table 6) was 2360 nM.

`CC(C)[C@@H]1COCCN1c1nc2nc(-c3n[nH]c(=O)o3)nc(-c3cccc(Cl)c3)c2n1C[C@H]1CC[C@H](C)CC1` [Example 16.75, 5-{6-(3-chlorophenyl)-7-[(trans-4-methylcyclohexyl)methyl]-8-[(3R)-3-(1-methylethyl)morpholin-4-yl]-7H-purin-2-yl}-1,3,4-oxadiazol-2(3H)-one]: the IC50 under setting [1] is 14.7 nM.

Take `C[C@@H](Nc1nc(-c2noc(=O)[nH]2)nc2nc(NC(CO)c3ccccc3)n(C[C@H]3CC[C@H](C)CC3)c12)C1CCC1` (single isomer, unassigned) [Example 11.122]: the concentration for half-maximal inhibition (IC50) (Table 11) came to 4.17 nM.

Consider `C[C@@H](Nc1nc(-c2noc(=O)[nH]2)nc2nc(N3CCCC3(C)C)n(Cc3ccc(C(F)(F)F)cc3)c12)C1CCC1` [Example 9.83, 3-(6-{[(1R)-1-cyclobutylethyl]amino}-8-(2,2-dimethylpyrrolidin-1-yl)-7-[4-(trifluoromethyl)benzyl]-7H-purin-2-yl)-1,2,4-oxadiazol-5(4H)-one], for which the IC50 (Table 9) came out at 25.6 nM.

Take `C[C@@H](Nc1nc(-c2noc(=O)[nH]2)nc2nc(C(C)(O)c3nccs3)n(C[C@H]3CC[C@H](C)CC3)c12)C1CCC1` (stereo partly drawn) [Example 22.58, 3-(6-{[(1R)-1-cyclobutylethyl]amino}-8-[1-hydroxy-1-(1,3-thiazol-2-yl)ethyl]-7-[(trans-4-methylcyclohexyl)methyl] -7H-purin-2-yl)-1,2,4-oxadiazol-5(4H)-one]: for the setting “Table 22”, the half-maximal inhibitory concentration (IC50) came to 7.21 nM.

In the case of `CCOc1cc(C(C)C)cc(-c2nc3nc(C(=O)O)nc(N[C@H](C)C4CCC4)c3n2C[C@H]2CC[C@H](C)CC2)n1` [Example 15.4, 6-(((R)-1-cyclobutylethyl)amino)-8-(6-ethoxy-4-isopropylpyridin-2-yl)-7-((trans-4-methylcyclohexyl)methyl)-7H-purine-2-carboxylic acid], the half-maximal inhibitory concentration (IC50) under setting [1] worked out at 4.44 nM.

On to `C[C@@H](Nc1nc(C(=O)O)nc2nc(N3CCCCC3c3ccccc3)n(Cc3ccc(C(F)(F)F)cc3)c12)C1CCC1` (stereo partly drawn) [Example 9.44, 6-{[(1R)-1-cyclobutylethyl]amino}-8-(2-phenylpiperidin-1-yl)-7-[4-(trifluoromethyl)benzyl]-7H-purine-2-carboxylic acid], for which, for the setting “Table 9”, the concentration for half-maximal inhibition (IC50) turned out to be 3.67 nM.

With `C[C@H]1CC[C@H](Cn2c(N3CCOC[C@H]3c3ccc(F)cc3)nc3nc(-c4noc(=O)[nH]4)nc(-c4cncc(Cl)c4)c32)CC1` [Example 16.93, 3-{6-(5-chloropyridin-3-yl)-8-[(3R)-3-(4-fluorophenyl)morpholin-4-yl]-7-[(trans-4-methylcyclohexyl)methyl]-7H-purin-2-yl}-1,2,4-oxadiazol-5(4H)-one], the 50% inhibitory concentration (IC50) under setting [1] came to 1.37 nM.
